The Deep4Chem optical property database

Assay: photoluminescence quantum yield (fraction); solvent given as SMILES

With O=C(c1ccccc1)c1cc2ccc1CCc1ccc(cc1-c1ccc(N(c3ccccc3)c3ccccc3)cc1)CC2 the photoluminescence quantum yield (in c1cc(-n2c3ccccc3c3ccccc32)cc(-n2c3ccccc3c3ccccc32)c1) was 0.12.
COc1cc(OC)cc(-c2ccc(-c3ccc(C#N)s3)s2)c1 gave a photoluminescence quantum yield (in C1CCCCC1) of 0.09, a photoluminescence quantum yield (in C1COCCO1) of 0.09 and a photoluminescence quantum yield (in CC#N) of 0.11. For the same compound, the photoluminescence quantum yield (in CC(C)O) was 0.1, the photoluminescence quantum yield (in CCCCO) was 0.1 and the photoluminescence quantum yield (in CCO) was 0.1. The photoluminescence quantum yield (in CCOC(C)=O) was 0.09, the photoluminescence quantum yield (in CN(C)C=O) was 0.12 and the photoluminescence quantum yield (in CO) was 0.1. For the same compound, the photoluminescence quantum yield (in CS(C)=O) was 0.16, the photoluminescence quantum yield (in Cc1ccccc1) was 0.09 and the photoluminescence quantum yield (in ClC(Cl)Cl) was 0.1. The photoluminescence quantum yield (in ClCCl) was 0.09 and the photoluminescence quantum yield (in O) was 0.02.
CCOc1ccc2c(-c3nc(-c4ccccc4Cl)no3)cc(=O)oc2c1 gave a photoluminescence quantum yield (in CCO) of 0.52 and a photoluminescence quantum yield (in ClC(Cl)Cl) of 0.26.
Compound Cc1c(C)n2c(COC(=O)c3ccccc3I)c(C)c(=O)n2c1=O has a photoluminescence quantum yield (in CCO) of 0.634.
CN1C(=CC2=C([O-])C(=CC3=[N+](C)c4ccc(Cl)cc4C3(C)C)C2=O)C(C)(C)c2cc(Cl)ccc21 showed a photoluminescence quantum yield (in CC(C)O) of 0.1.
For Cc1cc(=O)oc2cc3cc(O)ccc3cc12, the photoluminescence quantum yield (in CC#N) was 0.02 and the photoluminescence quantum yield (in CCO) was 0.35.
CCCCc1ccc2ccc3cccc4ccc1c2c34 showed a photoluminescence quantum yield (in CCCCCC) of 0.35, a photoluminescence quantum yield (in CO) of 0.31 and a photoluminescence quantum yield (in ClCCl) of 0.41.
In the case of Cc1cc(C)c(B(c2c(C)cc(C)cc2C)N2c3ccccc3C3(c4ccccc4-c4ccccc43)c3ccccc32)c(C)c1, the photoluminescence quantum yield (in C1CCCCC1) is reported as 0.978, the photoluminescence quantum yield (in Cc1ccccc1) is reported as 0.942 and the photoluminescence quantum yield (in ClCCl) is reported as 0.539.
Brc1ccc2cc3c4ccccc4nc(-c4ccco4)c3n2c1 gave a photoluminescence quantum yield (in CS(C)=O) of 0.03.
In the case of N#Cc1ccc(C2=CC3=c4cc(-c5ccc(C#N)cc5)c5nc(C(F)(F)C(F)(F)C(F)(F)F)nc6c(-c7ccc(C#N)cc7)cc(c4c65)C4=CC(c5ccc(C#N)cc5)=C5N=C(C(F)(F)C(F)(F)C(F)(F)F)N=C2C5C43)cc1 (stereo not given), the photoluminescence quantum yield (in C1CCOC1) is reported as 1.
Compound CC(C)(C)c1ccc(-c2cc(-c3ccc(-c4cc(-c5ccc(C(C)(C)C)cc5)c(C(=O)NCc5cccs5)s4)s3)sc2C(=O)NCc2cccs2)cc1 has a photoluminescence quantum yield (in ClCCl) of 0.33.
For CCCCCCCCCCCCOc1cc(C(=O)Nc2ccc(-c3ccc4c(c3)C(=O)c3ccccc3-4)cc2)cc(OCCCCCCCCCCCC)c1OCCCCCCCCCCCC, the photoluminescence quantum yield (in C1CCOC1) was 0.04.
NNC(=O)c1ccc(/C=C/c2ccc(C(=O)NN)cc2)cc1 gave a photoluminescence quantum yield (in CN(C)C=O) of 0.2.
Cc1ccc2nnn(-c3c(C#N)c4c(N)ncnc4n3[C@H]3C[C@H](O)[C@@H](CO)O3)c2c1 gave a photoluminescence quantum yield (in CO) of 0.007.
Compound CC[N+](CC)=c1ccc2c(C(F)(F)F)c3c(oc-2c1)-c1ccc(N(C)C)cc1CC3 has a photoluminescence quantum yield (in CCO) of 0.163, a photoluminescence quantum yield (in ClCCl) of 0.336 and a photoluminescence quantum yield (in O) of 0.039.
In the case of CCN(CC)c1ccc2c(-c3ccccc3C(=O)O)c3c([o+]c2c1)/C(=C/c1ccc2c(c1)c1ccccc1n2CC)CCC3, the photoluminescence quantum yield (in ClCCl) is reported as 0.08.
For CCCCCCCCCCCCN1C(=O)c2c(c3ccc4cc(-c5ccc(Cl)cc5)c(OC)cc4c3c3c2ccc2cc(-c4ccc(Cl)cc4)c(OC)cc23)C1=O, the photoluminescence quantum yield (in ClCCl) was 0.144.
Work on CC1=CC(C)=[N+]2C1=C(c1c3ccccc3cc3ccccc13)c1c(C)cc(C)n1[B-]2(F)F yielded a photoluminescence quantum yield (in CC#N) of 0.006, a photoluminescence quantum yield (in CCCCCC) of 0.99 and a photoluminescence quantum yield (in CCO) of 0.038. It also gave a photoluminescence quantum yield (in CN(C)C=O) of 0.011, a photoluminescence quantum yield (in Cc1ccccc1) of 0.92 and a photoluminescence quantum yield (in ClCCl) of 0.072.
With CN(C)c1ccc(C(=Cc2ccc(/C=C/c3ccc(C#N)cc3)cc2)c2ccc(N(C)C)cc2)cc1 the photoluminescence quantum yield (in C1CCOC1) was 0.042.
Work on COC(=O)C1=C(C(=O)OC)C2(c3ccccc3-c3ccc([N+](=O)[O-])cc32)C2(/C=C/c3ccccc3)c3cc(OC)c(OC)cc3CCN12 (stereo not given) yielded a photoluminescence quantum yield (in ClCCl) of 0.00069.
Work on Cc1cc(C)c([B-]2(c3c(C)cc(C)cc3C)[O+]=P(c3ccccc3)(c3ccccc3)c3cc(C#Cc4ccccc4)sc3-c3sc(C#Cc4ccccc4)cc32)c(C)c1 yielded a photoluminescence quantum yield (in C1CCOC1) of 0.063.
Nc1cc2oc3cc(O)c(F)cc3c(=O)c2cc1F gave a photoluminescence quantum yield (in CCO) of 0.44.
CCC[Si](CCC)(CCC)c1cc2ccc3cccc4ccc(c1C(=O)NC(C)(C)C)c2c34 gave a photoluminescence quantum yield (in ClC(Cl)Cl) of 0.161.
In the case of CCCCCCN(c1ccccc1)c1ccc2c(c1)C(CC)(CC)c1cc(/C=C/c3ccc(/C=C(\C#N)C(=O)O)s3)ccc1-2, the photoluminescence quantum yield (in C1CCOC1) is reported as 0.458, the photoluminescence quantum yield (in C1COCCO1) is reported as 0.813 and the photoluminescence quantum yield (in CC#N) is reported as 0.105. It also gave a photoluminescence quantum yield (in CC(C)=O) of 0.251, a photoluminescence quantum yield (in CCOC(C)=O) of 0.443 and a photoluminescence quantum yield (in CN(C)C=O) of 0.638. The photoluminescence quantum yield (in CS(C)=O) was 0.322 and the photoluminescence quantum yield (in ClCCl) was 0.047.
Compound c1cc2c3c(c1)-c1cccc4ccn(c14)B3n1ccc3cccc-2c31 has a photoluminescence quantum yield (in C1CCOC1) of 0.65.
With c1ccc2c(c1)c1ccccc1c1[nH]c(-c3ccc(-c4nc5c6ccccc6c6ccccc6c5[nH]4)cc3)nc21 the photoluminescence quantum yield (in C1CCOC1) was 0.79, the photoluminescence quantum yield (in CC#N) was 0.76 and the photoluminescence quantum yield (in CCO) was 0.77. For the same compound, the photoluminescence quantum yield (in CS(C)=O) was 0.78 and the photoluminescence quantum yield (in ClCCl) was 0.76.
Work on OCc1ccc2c3cccc4cccc(c5cccc1c52)c43 yielded a photoluminescence quantum yield (in CCO) of 0.95.
In the case of C(#Cc1c(C#Cc2cccs2)c(C#Cc2cccs2)c(C#Cc2cccs2)c(C#Cc2cccs2)c1C#Cc1cccs1)c1cccs1, the photoluminescence quantum yield (in ClCCl) is reported as 0.27.
Compound CN(C)c1ccc2c(c1)COc1c-2oc2ccccc2c1=O has a photoluminescence quantum yield (in C1CCCCC1) of 0.5, a photoluminescence quantum yield (in C1CCOC1) of 0.91 and a photoluminescence quantum yield (in CC#N) of 0.86. For the same compound, the photoluminescence quantum yield (in CCOC(C)=O) was 0.95, the photoluminescence quantum yield (in CCOCC) was 1 and the photoluminescence quantum yield (in CO) was 0.68. It also gave a photoluminescence quantum yield (in Cc1ccccc1) of 1.
Compound O=Cc1ccc(C2=C3C=c4c(oc5ccccc45)=[N+]3[B-](F)(F)n3c2cc2c4ccccc4oc23)cc1 has a photoluminescence quantum yield (in C1CCCCC1) of 0.63, a photoluminescence quantum yield (in C1CCOC1) of 0.42 and a photoluminescence quantum yield (in CC#N) of 0.37. For the same compound, the photoluminescence quantum yield (in CCOC(C)=O) was 0.39, the photoluminescence quantum yield (in CN(C)C=O) was 0.45 and the photoluminescence quantum yield (in CO) was 0.44. The photoluminescence quantum yield (in Cc1ccccc1) was 0.53 and the photoluminescence quantum yield (in ClCCl) was 0.5.
Work on CN(C)c1ccc(/C=C/c2ncnc3ccccc23)cc1 yielded a photoluminescence quantum yield (in ClCCl) of 0.07.
For COc1ccc(N(c2ccc(OC)cc2)c2ccc(-c3ccc(-c4ccc(-c5ccc(-c6ccc(N(c7ccc(OC)cc7)c7ccc(OC)cc7)cc6)s5)c5nsnc45)s3)cc2)cc1, the photoluminescence quantum yield (in ClC(Cl)Cl) was 0.18.
With CCOC(=O)c1ccc(C2=C(c3ccccc3)c3sc4ccccc4[n+]3[B-](F)(F)O2)cc1 the photoluminescence quantum yield (in C1CCOC1) was 0.011.
With N#Cc1ccc(-n2c(-c3ccc(-c4ccc(-c5nc6c7ccccc7c7ccccc7c6n5-c5ccc(C#N)c6ccccc56)cc4)cc3)nc3c4ccccc4c4ccccc4c32)c2ccccc12 the photoluminescence quantum yield (in ClCCl) was 0.85.
For CC[Si](CC)(CC)c1cc2ccc3cccc4ccc(c1C(=O)NC(C)(C)C)c2c34, the photoluminescence quantum yield (in ClC(Cl)Cl) was 0.162.
For [O-][n+]1c(/C=C/c2ccccc2)nc(Nc2ccccc2)c2c1CCCC2, the photoluminescence quantum yield (in ClCCl) was 0.16.
In the case of CCCCCCCCCCCCC(CCCCCCCCCC)Cn1c2cc(/C=C/c3nc4ccccc4s3)c3cccc4c5cccc6c(/C=C/c7nc8ccccc8s7)cc1c(c65)c2c34 (stereo not given), the photoluminescence quantum yield (in C1CCCCC1) is reported as 0.42, the photoluminescence quantum yield (in CC#N) is reported as 0.434 and the photoluminescence quantum yield (in Cc1ccccc1) is reported as 0.398. For the same compound, the photoluminescence quantum yield (in ClCCl) was 0.369.
CC(C)(C)c1ccc2c(c1)c1cc(C(C)(C)C)ccc1n2-c1ccc(C#Cc2ccccc2)cc1 gave a photoluminescence quantum yield (in ClCCl) of 0.8.
Oc1ccc(-c2ccco2)cc1-c1nc2ccccc2s1 showed a photoluminescence quantum yield (in CCO) of 0.0588, a photoluminescence quantum yield (in ClCCl) of 0.0292 and a photoluminescence quantum yield (in O) of 0.07.
For CCOC(=O)c1cc(C(=O)OCC)c2cc(NC)ccc2n1, the photoluminescence quantum yield (in CCO) was 0.47.
CCOC(=O)c1cc(C(=O)OCC)c2ccc(O)cc2n1 gave a photoluminescence quantum yield (in CCO) of 0.007.
For O=P1(c2ccccc2)C(c2ccc(C3=Cc4ccccc4P3(=O)c3ccccc3)cc2)=Cc2ccccc21 (stereo not given), the photoluminescence quantum yield (in C1CCOC1) was 0.29.
CCC1(CC)c2ccccc2-c2ccc(C#Cc3cc(C#Cc4ccc5c(c4)C(CC)(CC)c4ccccc4-5)c4ccc5c(C#Cc6ccc7c(c6)C(CC)(CC)c6ccccc6-7)cc(C#Cc6ccc7c(c6)C(CC)(CC)c6ccccc6-7)c6ccc3c4c65)cc21 gave a photoluminescence quantum yield (in Cc1ccccc1) of 0.64.
O=c1c2cc(F)c(O)cc2oc2cc(N3CCCCC3)c(F)cc12 gave a photoluminescence quantum yield (in CCO) of 0.23.
With Cc1cc(=O)c2c(ccc3ccc(O)cc32)o1 the photoluminescence quantum yield (in CC#N) was 0.02.
c1ccc(C(=C(c2ccccc2)c2ccc(-c3nc4c(-c5ccc(C(=C(c6ccccc6)c6ccccc6)c6ccccc6)cc5)sc(-c5ccc(C(=C(c6ccccc6)c6ccccc6)c6ccccc6)cc5)c4nc3-c3ccc(C(=C(c4ccccc4)c4ccccc4)c4ccccc4)cc3)cc2)c2ccccc2)cc1 gave a photoluminescence quantum yield (in Cc1ccccc1) of 0.267 and a photoluminescence quantum yield (in ClCCl) of 0.109.
COc1ccc2cc(/C=C/c3ccc([N+](=O)[O-])cc3)c(=O)oc2c1 gave a photoluminescence quantum yield (in CC#N) of 0.24.
With COc1ccc(C2=C(C)C3=C(c4c(-c5ccccn5)nc5ccccn45)c4c(C)c(-c5ccc(OC)cc5)c(C)n4[B-](F)(F)[N+]3=C2C)cc1 the photoluminescence quantum yield (in ClCCl) was 0.416.
CCC1(CC)c2ccccc2-c2c1c1c(c3c2C(CC)(CC)c2cc(B(c4c(C)cc(C)cc4C)c4c(C)cc(C)cc4C)ccc2-3)C(CC)(CC)c2ccccc2-1 gave a photoluminescence quantum yield (in C1CCOC1) of 0.56.
Work on CCOC(=O)c1cc(C(=O)OCC)c2cc(OC)ccc2n1 yielded a photoluminescence quantum yield (in CCO) of 0.53.
For F[B-]1(F)N2C(=Nc3cccc4cccc2c34)c2cccc[n+]21, the photoluminescence quantum yield (in CC#N) was 0.0002, the photoluminescence quantum yield (in CO) was 0.007 and the photoluminescence quantum yield (in CS(C)=O) was 0.0005. The photoluminescence quantum yield (in Cc1ccccc1) was 0.006.
CCC1=C(C)C2C(c3ccc(-c4ccc(-c5nc6c7ccccc7c7ccccc7c6n5-c5ccc(C(C)(C)C)cc5)cc4)cc3)c3c(C)c(CC)c(C)n3[B-](F)(F)[N+]2=C1C (stereo not given) showed a photoluminescence quantum yield (in ClC(Cl)Cl) of 0.672.
Compound C(=C\c1cnccn1)/c1ccc2nccnc2c1 has a photoluminescence quantum yield (in CCCCCC) of 0.001, a photoluminescence quantum yield (in CCO) of 0.09 and a photoluminescence quantum yield (in CO) of 0.12. It also gave a photoluminescence quantum yield (in ClCCl) of 0.04 and a photoluminescence quantum yield (in c1ccccc1) of 0.02.
In the case of CSc1ccc(C#Cc2ccc(C#Cc3ccc(C#Cc4ccccc4C#N)cc3C#N)cc2C#N)cc1, the photoluminescence quantum yield (in ClC(Cl)Cl) is reported as 0.972.
COc1ccc(-c2csc(/C(C#N)=C/c3ccccc3Cl)n2)cc1 showed a photoluminescence quantum yield (in CC#N) of 0.062.
In the case of CC1(C)C(/C=C/C=C/C=C/C=C2/N(CCCCCC(=O)O)c3ccc(S(=O)(=O)[O-])cc3C2(C)C)=[N+](CCCCS(=O)(=O)[O-])c2ccc(S(=O)(=O)[O-])cc21, the photoluminescence quantum yield (in CO) is reported as 0.55 and the photoluminescence quantum yield (in O) is reported as 0.3.
